In PMC7565988, “Insight into the Anticancer Activity of Copper(II) 5-Methylenetrimethylammonium-Thiosemicarbazonates and Their Interaction with Organic Cation Transporters” (Biomolecules, 2020):

Key:
[1] = Solution stability of copper(II) complexes, UV/Vis spectrophotometric titration; type: physicochemical; conditions: for logβ [Cu(HL)]2+ / logβ [CuL]+: copper(II) complex of the proligand; for logβ [Cu(HL)]2+ / logβ [CuL]+ / logβ [CuLH−1]: I = 0.1 M (KCl), t = 25 °C; for logKderived [CuLH−1]+: logβ [CuL]+ − pKa (H2L+); for logβ [CuLH−1]: mixed hydroxido [CuL(OH)] species; for pCu (−log[Cu(II)]): pH = 7.4, cCu(II) = 10 μM, cL = 10 μM
Method: An Agilent Carry 8454 diode array spectrophotometer was used to record the UV/Vis spectra in the interval 200–800 nm. The path length was 1 cm. Proton dissociation constants (pKa) of the TSC ligands, the overall stability constants of the copper(II) monoligand complexes (logβ) and the individual spectra of the species in the various protonation states and stoichiometry were calculated by the computer program PSEQUAD [44]. Spectrophotometric titrations were performed on samples containing the proligands at 50 μM concentration by a KOH solution in the presence of 0.1 M KCl at 25.0 ± 0.1 °C in the pH range from 2 to 11.5, and the metal-to-ligand ratio was 1:0, 1:1 and 1:2. An Orion 710A pH-meter equipped with a Metrohm combined electrode (type 6.0234.100) and a Metrohm 665 Dosimat burette were used for the titrations. […] The average water ionisation constant (pKw) is 13.76 ± 0.05 in water. Argon was also passed over the solutions during the titrations. Measurements were also carried out in the range of ca. 1.0–2.0 by preparing individual samples in which KCl was partially or completely replaced by HCl and pH values (between 1 and 2) were calculated from the strong acid content.

[2] = system: SH-SY5Y neuroblastoma cells; assay: MTT cytotoxicity (24 h) / antiproliferation (72 h) assay; type: cell-based, human; conditions: SH-SY5Y; for IC50: Homo sapiens, MTT; for enhancement of cytotoxicity by chelation to copper(II), factor: proligand vs its copper(II) complex
Method: SH-SY5Y (ATCC® CRL-2266™) neuroblastoma cell line was purchased from LGC Promochem, Teddington, UK. The cell line was cultured in Eagle’s Minimal Essential Medium (EMEM, containing 4.5 g/L glucose) supplemented with a non-essential amino acid mixture, a selection of vitamins and 10% heat-inactivated foetal bovine serum. The cell line was incubated at 37 °C, in a 5% CO2, 95% air atmosphere.
(§1) In the study non-cancerous human embryonic lung fibroblast MRC-5, human colonic adenocarcinoma cell line (doxorubicin-sensitive Colo 205, multidrug resistant Colo 320) and neuroblastoma cell line SH-SY5Y were used to determine the effect of compounds on cell growth. The effects of increasing concentrations of compounds on cell growth were tested in 96-well flat-bottomed microtiter plates. The compounds were diluted in a volume of 100 μL of medium.
(§2) The adherent human embryonal lung fibroblast and SH-SY5Y neuroblastoma cells were cultured in 96-well flat-bottomed microtiter plates, using EMEM supplemented with 10% heat-inactivated foetal bovine serum. The density of the cells was adjusted to 2 × 10^4 cells in 100 μL per well, the cells were seeded for 24 h at 37 °C, 5% CO2, then the medium was removed from the plates containing the cells, and the dilutions of compounds previously made in a separate plate were added to the cells in 200 μL.
(§3) The culture plates were incubated at 37 °C for 24 h; at the end of the incubation period, 20 μL of MTT (thiazolyl blue tetrazolium bromide, Sigma) solution (from a stock solution of 5 mg/mL) were added to each well. After incubation at 37 °C for 4 h, 100 μL of sodium dodecyl sulfate (SDS) (Sigma) solution (10% in 0.01 M HCI) were added to each well and the plates were further incubated at 37 °C overnight. Cell growth was determined by measuring the optical density (OD) at 540/630 nm with Multiscan EX ELISA reader (Thermo Labsystems, Cheshire, WA, USA). […] Curves were fitted by GraphPad Prism software using the sigmoidal dose-response model (comparing variable and fixed slopes).
(§4) The method is similar to the one described in the assay for cytotoxic effect. […] The culture plates were incubated at 37 °C for 72 h and after the incubation time, the plates were stained with MTT according to the previous experimental protocol described for the cytotoxicity assay.

[3] = as above; type: cell-based; conditions: human, MRC-5 embryonal lung fibroblast cells (non-cancerous); for IC50 at 24 h: 24 h exposure; for IC50 at 72 h: 72 h exposure
Method: MRC-5 human embryonal lung fibroblast cell line (ATCC CCL-171) was purchased from LGC Promochem, Teddington, UK. The cell line was cultured in Eagle’s Minimal Essential Medium (EMEM, containing 4.5 g/L glucose) supplemented with a non-essential amino acid mixture, a selection of vitamins and 10% heat-inactivated foetal bovine serum. The cell line was incubated at 37 °C, in a 5% CO2, 95% air atmosphere.
as §1, §2, §3, §4

[4] = Redox reaction of copper(II) complexes with GSH, anaerobic UV/Vis kinetics; type: physicochemical; conditions: copper(II) complex (1–4) of the proligand, pH = 7.4, ccomplex = 25 μM, cGSH = 1.25 mM
Method: The redox reactions of the copper(II) complexes with GSH and AA were studied at 25.0 ± 0.1 °C on Hewlett Packard 8452A diode array spectrophotometer using a special, tightly closed tandem cuvette (Hellma Tandem Cell, 238-QS). The reactants were separated until the reaction was triggered. Both isolated pockets of the cuvette were completely deoxygenated by bubbling a stream of argon for 10–15 min before mixing the reactants. Spectra were recorded before and then immediately after the mixing, and changes were followed until no further absorbance change was observed. One of the isolated pockets contained the reducing agent and its concentration was 1250 μM and the other contained 25 μM copper(II) complex. The pH of all the solutions was adjusted to 7.40 by 50 mM HEPES buffer and an ionic strength of 0.1 M (KCl) was applied. The stock solutions of the reducing agents and the complexes were freshly prepared every day. During the calculations, the absorbance (A) − time (t) curves were fitted and analysed at the λmax of the complex. (A0 − Afinal) × e^(−a×t) + Afinal equation was used where A0, Afinal and a parameters were refined and accepted at the minimal value of the weighted sum of squared residuals (difference between the measured and calculated absorbance values) at the given wavelength. Then observed rate constants (kobs) of the redox reaction were obtained from the data points of the simulated absorbance–time curves as the slope of the ln(A/A0) versus t plots.

[5] = Distribution coefficient (D7.4), shake-flask method, n-octanol/buffered aqueous solution pH 7.40; type: physicochemical; conditions: n-octanol/PBS pH 7.4, 25 °C, read-out: logD7.4 (proligand)
Method: Distribution coefficients (D7.4) values were determined by the traditional shake-flask method in n-octanol/buffered aqueous solution at pH 7.40 (20 mM phosphate buffer saline (PBS)) at 25.0 ± 0.2 °C as described previously.

CCNC(=S)N/N=C/c1cc(C[N+](C)(C)C)ccc1O [[H2L^Et]Cl]
logβ [Cu(HL)]2+ [1]: 11.66 ± 0.03
logβ [CuL]+ [1]: 7.67 ± 0.03
logKderived [CuLH−1]+ [1]: 0.36
logβ [CuLH−1] [1]: −1.65 ± 0.09
pCu (−log[Cu(II)]) [1]: 11.82
IC50 ([2]; 24 h exposure): 88.1 ± 9.19 µM
IC50 ([2]; 72 h exposure): 49.9 ± 3.97 µM
IC50 at 24 h [3]: > 100 µM
IC50 at 72 h [3]: > 100 µM
kobs, observed rate constant of the redox reaction with GSH [4]: 0.058 ± 0.001 min⁻¹
logD [5]: 0.06 ± 0.04

C[N+](C)(C)Cc1ccc(O)c(/C=N/NC(N)=S)c1 [[H2L^H]Cl]
logβ [Cu(HL)]2+ [1]: 12.00 ± 0.01
logβ [CuL]+ [1]: 8.14 ± 0.01
logKderived [CuLH−1]+ [1]: 0.68
logβ [CuLH−1] [1]: −1.66 ± 0.02
pCu (−log[Cu(II)]) [1]: 12.21
IC50 ([2]; 24 h exposure): > 100 µM
IC50 ([2]; 72 h exposure): > 100 µM
enhancement of cytotoxicity by chelation to copper(II), factor [2]: ca. 2
IC50 at 24 h [3]: > 100 µM
IC50 at 72 h [3]: > 100 µM
kobs, observed rate constant of the redox reaction with GSH [4]: 0.080 ± 0.008 min⁻¹
logD [5]: -0.84 ± 0.03

CNC(=S)N/N=C/c1cc(C[N+](C)(C)C)ccc1O [[H2L^Me]Cl]
logβ [Cu(HL)]2+ [1]: 11.73 ± 0.02
logβ [CuL]+ [1]: 7.76 ± 0.02
logKderived [CuLH−1]+ [1]: 0.22
logβ [CuLH−1] [1]: −1.48 ± 0.08
pCu (−log[Cu(II)]) [1]: 11.79
IC50 ([2]; 24 h exposure): > 100 µM
IC50 ([2]; 72 h exposure): > 100 µM
enhancement of cytotoxicity by chelation to copper(II), factor [2]: ca. 7
IC50 at 24 h [3]: > 100 µM
IC50 at 72 h [3]: > 100 µM
kobs, observed rate constant of the redox reaction with GSH [4]: 0.073 ± 0.002 min⁻¹
logD [5]: -0.39 ± 0.01

C[N+](C)(C)Cc1ccc(O)c(/C=N/NC(=S)Nc2ccccc2)c1 [[H2L^Ph]Cl]
logβ [Cu(HL)]2+ [1]: 11.26 ± 0.02
logβ [CuL]+ [1]: 8.55 ± 0.02
logKderived [CuLH−1]+ [1]: 1.52
logβ [CuLH−1] [1]: −1.31 ± 0.05
pCu (−log[Cu(II)]) [1]: 12.80
IC50 ([2]; 24 h exposure): > 100 µM
IC50 ([2]; 72 h exposure): 31.5 ± 2.66 µM
IC50 at 24 h [3]: > 100 µM
IC50 at 72 h [3]: > 100 µM
kobs, observed rate constant of the redox reaction with GSH [4]: 0.025 ± 0.005 min⁻¹
logD [5]: 0.68 ± 0.04
